Reference: patent US20090075915A1, “6,11-BICYCLOLIDES: BRIDGED BIARYL MACROLIDE DERIVATIVES” (priority 2007, published 2009)
Converted amounts (≈) assume the structure as drawn. “Also recorded” adds a separate entry of the source. Like-named read-outs stand apart in the source and are kept apart here.

Assays:
MRSA 33591 = test: MIC, MRSA 33591; format: cell-based, Staphylococcus aureus; settings: Staphylococcus aureus, MRSA; Table 5
Protocol: (§1) Susceptibility tests can be used to quantitatively measure the in vitro activity of an antimicrobial agent against a given bacterial isolate. Compounds are tested for in vitro antibacterial activity by a micro-dilution method. Minimal Inhibitory Concentration (MIC) is determined in 96 well microtiter plates utilizing the appropriate broth medium for the observed bacterial isolates. Antimicrobial agents are serially diluted (2-fold) in DMSO to produce a concentration range from about 64 μg/ml to about 0.03 μg/ml. The diluted compounds (2 μl/well) are then transferred into sterile, uninoculated medium (0.2 mL) by use of a 96 fixed tip-pipetting station. The inoculum for each bacterial strain is standardized to approximately 5×10^5 CFU/mL by optical comparison to a 0.5 McFarland turbidity standard. The plates are inoculated with 10 μl/well of adjusted bacterial inoculum. The 96 well plates are covered and incubated at 35±2° C. for 24 hours in ambient air environment. Following incubation, plate wells are visually examined by Optical Density measurement for the presence of growth (turbidity). The lowest concentration of an antimicrobial agent at which no visible growth occurs is defined as the MIC.
(§2) All in vitro testing follows the guidelines described in the Approved Standards M7-A7 protocol, published by the Clinical Laboratory Standards Institute (CLSI).

H influenzae 33929 = test: MIC, H influenzae 33929; format: cell-based, Haemophilus influenzae; settings: Haemophilus influenzae, 33929; Table 5
Protocol: as §1, §2

MRSA 7662 [1] = test: MIC, MRSA 7662; format: cell-based; settings: Staphylococcus aureus
Protocol: as §1, §2

MRSA 7662 [2] = test: Mouse skin and soft tissue infection, MRSA 7662; format: in vivo; settings: Staphylococcus aureus
H influenzae 49247 = test: MIC, H influenzae 49247; format: cell-based, Haemophilus influenzae; settings: Haemophilus influenzae, 49247; Table 5
Protocol: as §1, §2

S. aureus Smith [3] = test: MIC, S. aureus Smith; format: cell-based, Staphylococcus aureus
Protocol: as §1, §2

S. aureus 7662 = test: Systemic mouse protection model, S. aureus 7662; format: in vivo; settings: Staphylococcus aureus, S. aureus 7662, iv
S. aureus Smith [4] = test: Systemic mouse protection model (MPT), S. aureus Smith; format: in vivo; settings: Staphylococcus aureus
[5] = Tissue accumulation at the site of infection (plasma, skin, skin abscess); settings: for AUC(0-inf) / AUC(0-t) / Cmax / Kp / Tmax / half-life: mouse, po, 50 mg/kg
H. influenzae 3643 [6] = test: MIC, H. influenzae 3643; format: cell-based, Haemophilus influenzae; parameters: unit not given beside the values
Protocol: as §1, §2

S. pneumoniae 7701 [7] = test: MIC, S. pneumoniae 7701; format: cell-based
Protocol: as §1, §2

H. influenzae 1435 [8] = test: MIC, H. influenzae 1435; format: cell-based, Haemophilus influenzae; parameters: unit not given beside the values
Protocol: as §1, §2

S. pneumoniae 7701 [9] = test: Mouse protection test model (MPT), S. pneumoniae 7701; format: in vivo; settings: Streptococcus pneumoniae
[10] = Oral pharmacokinetics in rat plasma and lung tissue; format: in vivo; settings: 10 mg/kg PO; for AUC(0-t): read-out: AUC0-24; for Kp: lung/plasma, po, 10 mg/kg
H. influenzae 1435 [11] = test: Rat lung infection model (RLI), H. influenzae 1435; format: in vivo; settings: Haemophilus influenzae, read-out: ED50 (2Log Red for RLI)
[12] = Oral pharmacokinetics in rat; format: in vivo; settings: 10 mg/kg
H. influenzae S1280 [13] = test: Rat lung infection model (RLI), H. influenzae S1280; format: in vivo; settings: Haemophilus influenzae, read-out: ED50 (2Log Red for RLI)
[14] = Oral pharmacokinetics in mice; format: in vivo; settings: 15 mg/kg
H. influenzae 3643 [15] = test: Rat lung infection model (RLI), H. influenzae 3643; format: in vivo; settings: Haemophilus influenzae, read-out: ED50 (2Log Red for RLI)
H. influenzae S1280 [16] = test: MIC, H. influenzae S1280; format: cell-based, Haemophilus influenzae; parameters: unit not given beside the values
Protocol: as §1, §2

[17] = Oral pharmacokinetics in dog; format: in vivo; settings: for Cmax / Tmax / half-life / AUC(0-t): in vivo; for Cmax / Tmax / half-life / AUC(0-t) / CLF / F / Vd: oral, Dog; for AUC(0-t): read-out: AUC0-24
[18] = In vitro blood incubation of amino acid prodrugs, rat blood; format: in vitro ADME; settings: 2 μM prodrug
Protocol: (§3) Compounds 5, 6, 7 and 8 (2 μM) were incubated with fresh human blood (conducted in duplicate), rat and mouse blood. Reaction was started by the addition of compound 5, and was stopped at predefined time points (0, 5, 10, 15, 30, 45 and 60 minutes) by removing one aliquot from the incubation mixture (0.1 mL per aliquot) and adding it to 3-fold volume of stop reagent (ice-cold acetonitrile, 0.3 mL). Precipitated protein was removed by centrifugation. Prodrug compound 5-8 and parent compound 1 or 3 concentrations in the supernatant were analyzed by LC/MS/MS.

[19] = In vitro blood incubation of amino acid prodrugs, fresh human blood; format: in vitro ADME; settings: 2 μM prodrug
Protocol: as §3

[20] = In vitro blood incubation of amino acid prodrugs, mouse blood; format: in vitro ADME, Mice; settings: 2 μM prodrug
Protocol: as §3

[21] = Rat PK of amino acid prodrug after IV/PO administration; format: in vivo
[22] = table of animal models of infection
[23] = plasma, 10 mg/kg IV, prodrug itself measured

## CCC(=O)/N=C1\[C@H](C)C[C@@]2(C)OC/C(=N/OCc3ccc(-c4nc(N)cs4)cn3)CO[C@H]([C@H]1C)[C@](C)(O)[C@@H](CC)OC(=O)[C@@](C)(F)C(=O)[C@H](C)[C@H]2O[C@@H]1O[C@H](C)C[C@H](N(C)C)[C@H]1O [Compound 1]
MRSA 33591
  MIC: 2 µg/mL (≈ 2.21 µM)
H influenzae 33929
  MIC: 4 µg/mL (≈ 4.42 µM)
MRSA 7662 [1]; S. aureus 7662, table of systemic mouse protection model, read-out: MIC
  MIC: 1000 µg/mL (≈ 1100 µM)
MRSA 7662 [1]; Table 5, read-out: MIC MRSA 7662
  MIC: 1 µg/mL (≈ 1.1 µM)
MRSA 7662 [2]; MRSA 7662, iv
  ED50: 12 mg/kg
MRSA 7662 [2]; MRSA 7662, po
  ED50: 29 mg/kg
H influenzae 49247
  MIC: 4 µg/mL (≈ 4.42 µM)
S. aureus Smith [3]; Staphylococcus aureus, table of systemic mouse protection model, read-out: MIC
  MIC: 130 µg/mL (≈ 144 µM)
S. aureus 7662
  ED50: 3.6 mg/kg
S. aureus Smith [4]; systemic mouse protection model, iv
  ED50: 4.8 mg/kg
S. aureus Smith [4]; systemic mouse protection model, po
  ED50: 13.3 mg/kg
[5]; infected skin tissue of mice
  Accumulation at the site of infection: highly accumulated at the site of infections in infected skin tissue of mice
[5]; infected skin abscess
  AUC(0-inf): 617000 ng·h/mL
  AUC(0-t): 257000 ng·h/mL
  Cmax: 9030 ng/mL
  Kp: 25.2
  Tmax: 3 h
  half-life: 52.4 h
[5]; plasma
  AUC(0-inf): 24500 ng·h/mL
  AUC(0-t): 24400 ng·h/mL
  Cmax: 5120 ng/mL
  Tmax: 0.5 h
  half-life: 5.2 h
[5]; uninfected skin
  AUC(0-inf): 66600 ng·h/mL
  AUC(0-t): 54600 ng·h/mL
  Cmax: 3800 ng/mL
  Kp: 2.72
  Tmax: 3 h
  half-life: 17.9 h

## CC[C@H]1OC(=O)[C@H](C)C(=O)[C@H](C)[C@@H](O[C@@H]2O[C@H](C)C[C@H](N(C)C)[C@H]2O)[C@@]2(C)C[C@@H](C)/C(=N\C(C)=O)[C@H](C)[C@@H](OC/C(=N\OCc3ccc(-c4ccno4)nc3)CO2)[C@]1(C)O [Compound 4]
H influenzae 33929
  MIC: 4 µg/mL (≈ 4.75 µM)
H. influenzae 3643 [6]
  MIC: 16
S. pneumoniae 7701 [7]
  MIC: <=0.06
H influenzae 49247
  MIC: 4 µg/mL (≈ 4.75 µM)
S. aureus Smith [3]; [22]
  MIC: 0.25
H. influenzae 1435 [8]
  MIC: 4
S. pneumoniae 7701 [9]
  ED50: 9 mg/kg
[10]; Lung
  Cmax: 19000 ± 80 ng/mL
  Tmax: 2.33 ± 1.15 h
  half-life: 2.51 ± 0.1 h
  AUC(0-t): 110000 ± 12900 ng·h/mL
[10]; Plasma
  Cmax: 2540 ± 80 ng/mL
  Tmax: 1.67 ± 1.15 h
  half-life: 2.06 ± 0.45 h
  AUC(0-t): 13900 ± 2810 ng·h/mL
[10]; read-out: AUC Lung/Plasma
  Kp: 8 ± 0.9
[10]; read-out: Cmax Lung/plasma
  Kp: 7.5 ± 1
H. influenzae 1435 [11]
  ED50: 33 mg/kg
[12]
  CLF: 10.7 mL/min/kg
  F: 87%
  Vd: 1.97 L/kg
[12]; plasma
  Cmax: 2540 ng/mL
  Tmax: 1.7 h
  half-life: 2.1 h
[12]; plasma, read-out: AUC0-24
  AUC(0-t): 13900 ng·h/mL
H. influenzae S1280 [13]
  ED50: 46 mg/kg
[14]
  CLF: 26.7 mL/min/kg
  F: 100%
  Vd: 6.8 L/kg
[14]; mouse, in vivo
  Cmax: 2430 ng/mL
  Tmax: 0.5 h
  half-life: 2.4 h
[14]; mouse, in vivo, read-out: AUC0-24
  AUC(0-t): 9800 ng·h/mL
S. aureus Smith [4]; MPT
  ED50: 9 mg/kg
H. influenzae 3643 [15]
  ED50: 64 mg/kg
H. influenzae S1280 [16]
  MIC: 8
[17]; dogs
  Animal pharmacokinetics properties in dogs: low clearance, excellent oral absorption (bioavailability) and AUC
[17]; 5 mg/kg
  Cmax: 2470 ng/mL
  Tmax: 1.3 h
  half-life: 7.3 h
  AUC(0-t): 32600 ng·h/mL
  CLF: 1.67 mL/min/kg
  F: 71%
  Vd: 1.0 L/kg
[17]; 10 mg/kg
  Cmax: 5040 ng/mL
  Tmax: 6 h
  half-life: 15.8 h
  AUC(0-t): 84400 ng·h/mL
  CLF: 1.67 mL/min/kg
  F: 100%
  Vd: 1.54 L/kg

## CCC(=O)/N=C1\[C@H](C)C[C@@]2(C)OC/C(=N/OCc3ccc(-c4nc(NC(=O)[C@@H](N)CC(C)C)cs4)cn3)CO[C@H]([C@H]1C)[C@](C)(O)[C@@H](CC)OC(=O)[C@@](C)(F)C(=O)[C@H](C)[C@H]2O[C@@H]1O[C@H](C)C[C@H](N(C)C)[C@H]1O [Compound 6]
[18]
  % remaining after 60 min, Rat: 9.3%
[19]
  % remaining after 60 min, Human: 8.3%
[20]
  % remaining after 60 min, Mice: 5.6%
[21]; 10 mg/kg IV, prodrug itself measured
  ClF: 788 mL/min/kg
[21]; 10 mg/kg PO, prodrug itself, 10 mg/kg
  Prodrug in plasma after oral administration: No prodrug was detected in the plasma; also recorded: None detected in plasma via oral route-
[21]; after oral (po) and IV administration
  Conversion to the parent amino derivative (Compound 1): rapidly converted to the parent amino derivative
[21]; [23]
  AUC(0-inf): 210 ng·h/mL
  Cmax: 310 ng/mL
  Tmax: 4.8 min
  Vd: 13.3 L/kg
  half-life: 0.2 h

## CC[C@H]1OC(=O)[C@H](C)C(=O)[C@H](C)[C@@H](O[C@@H]2O[C@H](C)C[C@H](N(C)C)[C@H]2O)[C@](C)(OC)C[C@@H](C)C(=O)[C@H](C)[C@H]2N(CCCCn3cnc(-c4cccnc4)c3)C(=O)O[C@]12C [Telithromycin, reference compound]
H. influenzae 3643 [6]
  MIC: 4
S. pneumoniae 7701 [7]
  MIC: 0.25
S. aureus Smith [3]; [22]
  MIC: 0.13
H. influenzae 1435 [8]
  MIC: 2
S. pneumoniae 7701 [9]
  ED50: 10 mg/kg
H. influenzae 1435 [11]
  ED50: 49 mg/kg
H. influenzae S1280 [13]
  ED50: 56 mg/kg
S. aureus Smith [4]; MPT
  ED50: 11 mg/kg
H. influenzae 3643 [15]
  ED50: 78 mg/kg
H. influenzae S1280 [16]
  MIC: 2
